Experimental data reported in PubChem BioAssay (NCI).
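Step 1: Grow cells in 96-well plates. Step 2: Expose to compound for 48 hours at 5 concentrations. Step 3: Interpolate endpoints linearly; if unreached, use highest concentration. Here, GI50 denotes the concentration required for 50% inhibition of growth. TGI: concentration producing complete growth inhibition.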

Tests used:
Assay in all cases: inhibition of tumour cell growth, NCI panel, 48 h
[1] = system: T-47D breast
[2] = system: OVCAR-5 ovarian
[3] = system: HT29 colon
[4] = system: RPMI-8226 leukemia
[5] = system: SN12C renal
[6] = system: SK-MEL-2 melanoma
[7] = system: BT-549 breast
[8] = system: OVCAR-4 ovarian
[9] = system: U251 CNS
[10] = system: A549 NSCLC
[11] = system: COLO 205 colon
[12] = system: SF-539 CNS
[13] = system: SNB-19 CNS
[14] = system: MCF7 breast
[15] = system: NCI-H460 lung
[16] = system: NCI/ADR-RES ovarian
[17] = system: LOX IMVI melanoma
[18] = system: SK-MEL-28 melanoma
[19] = system: OVCAR-3 ovarian
[20] = system: A498 renal
[21] = system: RXF 393 renal
[22] = system: SR leukemia
[23] = system: K-562 leukemia
[24] = system: UACC-62 melanoma
[25] = system: HCT-15 colon
[26] = system: HCT-116 colon
[27] = system: ACHN renal
[28] = system: MDA-MB-231 breast
[29] = system: SW-620 colon
[30] = system: EKVX NSCLC
[31] = system: TK-10 renal
[32] = system: CCRF-CEM leukemia
[33] = system: IGROV1 ovarian
[34] = system: MOLT-4 leukemia
[35] = system: SK-OV-3 ovarian
[36] = system: HL-60(TB) leukemia
[37] = system: MALME-3M melanoma
[38] = system: NCI-H23 lung
[39] = system: 786-0 renal
[40] = system: CAKI-1 renal
[41] = system: M14 melanoma
[42] = system: HCC-2998 colon
[43] = system: NCI-H226 lung
[44] = system: UACC-257 melanoma
[45] = system: DU-145 prostate
[46] = system: NCI-H522 lung
[47] = system: UO-31 renal
[48] = system: KM12 colon
[49] = system: OVCAR-8 ovarian
[50] = system: PC-3 prostate
[51] = system: HS 578T breast
[52] = system: SF-295 CNS
[53] = system: SF-268 CNS
[54] = system: SNB-75 CNS
[55] = system: SK-MEL-5 melanoma
[56] = system: MDA-MB-435
[57] = system: HOP-62 NSCLC
[58] = system: HOP-92 NSCLC

In the case of CCn1c(-c2nonc2N)nc2cncc(C(=O)NCCNC)c21, the GI50 [1] is reported as 16.7 µM, the TGI [1] is reported as > 25 µM and the GI50 [2] is reported as 0.441 µM. The TGI [2] was > 25 µM, the GI50 [3] was 0.817 µM and the TGI [3] was > 25 µM. The GI50 [4] was > 25 µM, the TGI [4] was > 25 µM and the GI50 [5] was > 25 µM. The TGI [5] was > 25 µM, the GI50 [6] was 5.27 µM and the TGI [6] was > 25 µM. The GI50 [7] was 3.13 µM, the TGI [7] was > 22.3 µM and the GI50 [8] was > 22.8 µM. The TGI [8] was > 25 µM, the GI50 [9] was > 25 µM and the TGI [9] was > 25 µM. The GI50 [10] was 4.47 µM, the TGI [10] was > 23.3 µM and the GI50 [11] was 1.15 µM. The TGI [11] was 8.51 µM, the GI50 [12] was 3.04 µM and the TGI [12] was > 25 µM. The GI50 [13] was > 25 µM, the TGI [13] was > 25 µM and the GI50 [14] was 1.92 µM. For the same compound, the TGI [14] was > 25 µM, the GI50 [15] was 8.59 µM and the TGI [15] was > 25 µM. The GI50 [16] was 18.9 µM, the TGI [16] was > 25 µM and the GI50 [17] was > 25 µM. The TGI [17] was > 25 µM, the GI50 [18] was 12.9 µM and the TGI [18] was > 25 µM. The GI50 [19] was > 23.9 µM, the TGI [19] was > 25 µM and the GI50 [20] was 0.834 µM. For the same compound, the TGI [20] was > 19.8 µM, the GI50 [21] was 2.57 µM and the TGI [21] was > 25 µM. For the same compound, the GI50 [22] was 4.53 µM, the TGI [22] was > 25 µM and the GI50 [23] was > 25 µM. The TGI [23] was > 25 µM, the GI50 [24] was 13.6 µM and the TGI [24] was > 25 µM. The GI50 [25] was 5.98 µM, the TGI [25] was > 25 µM and the GI50 [26] was 2.78 µM. For the same compound, the TGI [26] was > 25 µM, the GI50 [27] was 11.2 µM and the TGI [27] was > 25 µM. For the same compound, the GI50 [28] was > 25 µM, the TGI [28] was > 25 µM and the GI50 [29] was 4.07 µM. The TGI [29] was > 25 µM, the GI50 [30] was 0.903 µM and the TGI [30] was > 25 µM. For the same compound, the GI50 [31] was 0.612 µM, the TGI [31] was 4.64 µM and the GI50 [32] was > 19.9 µM. The TGI [32] was > 25 µM, the GI50 [33] was 4.87 µM and the TGI [33] was > 22.6 µM. The GI50 [34] was > 25 µM, the TGI [34] was > 25 µM and the GI50 [35] was 17.3 µM. For the same compound, the TGI [35] was > 25 µM, the GI50 [36] was > 25 µM and the TGI [36] was > 25 µM. The GI50 [37] was 5.7 µM, the TGI [37] was > 25 µM and the GI50 [38] was 9.32 µM. For the same compound, the TGI [38] was > 25 µM, the GI50 [39] was 12.1 µM and the TGI [39] was > 25 µM. The GI50 [40] was 1.56 µM, the TGI [40] was 14.4 µM and the GI50 [41] was 17.2 µM. For the same compound, the TGI [41] was > 25 µM, the GI50 [42] was 4.77 µM and the TGI [42] was > 25 µM. For the same compound, the GI50 [43] was 0.454 µM, the TGI [43] was > 25 µM and the GI50 [44] was 3.04 µM. For the same compound, the TGI [44] was > 25 µM, the GI50 [45] was 22.8 µM and the TGI [45] was > 25 µM. For the same compound, the GI50 [46] was 13.1 µM, the TGI [46] was > 25 µM and the GI50 [47] was 0.684 µM. The TGI [47] was 5.77 µM, the GI50 [48] was > 25 µM and the TGI [48] was > 25 µM. For the same compound, the GI50 [49] was 15.3 µM, the TGI [49] was > 25 µM and the GI50 [50] was > 25 µM. For the same compound, the TGI [50] was > 25 µM, the GI50 [51] was 0.36 µM and the TGI [51] was > 6.59 µM. For the same compound, the GI50 [52] was > 25 µM, the TGI [52] was > 25 µM and the GI50 [53] was 7.78 µM. For the same compound, the TGI [53] was > 25 µM, the GI50 [54] was 0.246 µM and the TGI [54] was 6.61 µM. For the same compound, the GI50 [55] was > 16 µM, the TGI [55] was > 25 µM and the GI50 [56] was 2.64 µM. The TGI [56] was > 25 µM, the GI50 [57] was 3.11 µM and the TGI [57] was > 25 µM.

For CC(C)n1c(=O)n(C)c2cnc3cc(F)c(-c4ccc(OCCCN5CCCCC5)nc4)cc3c21, the GI50 [1] was 9.65 µM, the TGI [1] was 38.8 µM and the GI50 [2] was 15.7 µM. It also gave a TGI [2] of 55.7 µM, a GI50 [3] of 8.5 µM and a TGI [3] of 37.2 µM. For the same compound, the GI50 [4] was 3.22 µM, the TGI [4] was 14.6 µM and the GI50 [5] was 7.14 µM. The TGI [5] was 42.8 µM, the GI50 [6] was 14.4 µM and the TGI [6] was 30.2 µM. The GI50 [7] was 10.1 µM, the TGI [7] was 28.4 µM and the GI50 [8] was 9.08 µM. The TGI [8] was 56.5 µM, the GI50 [9] was 13.5 µM and the TGI [9] was 37.6 µM. For the same compound, the GI50 [10] was 16.3 µM, the TGI [10] was 63.9 µM and the GI50 [11] was 7.39 µM. It also gave a TGI [11] of 23.4 µM, a GI50 [12] of 8.38 µM and a TGI [12] of 22.9 µM. For the same compound, the GI50 [13] was 17.4 µM, the TGI [13] was 77.5 µM and the GI50 [14] was 7.46 µM. The TGI [14] was 21.6 µM, the GI50 [15] was 11.3 µM and the TGI [15] was 29.4 µM. For the same compound, the GI50 [16] was 12.4 µM, the TGI [16] was 81.3 µM and the GI50 [17] was 4.13 µM. It also gave a TGI [17] of 16.6 µM, a GI50 [58] of 1.2 µM and a TGI [58] of 9.36 µM. It also gave a GI50 [18] of 13.5 µM, a TGI [18] of 32.4 µM and a GI50 [19] of 13.7 µM. It also gave a TGI [19] of 49.5 µM, a GI50 [20] of 3.78 µM and a TGI [20] of 14 µM. It also gave a GI50 [22] of 5.76 µM, a TGI [22] of 32.2 µM and a GI50 [24] of 14.1 µM. The TGI [24] was 29.3 µM, the GI50 [25] was 11.1 µM and the TGI [25] was 31.5 µM. The GI50 [26] was 10.9 µM, the TGI [26] was 27.4 µM and the GI50 [27] was 16.2 µM. It also gave a TGI [27] of 76.8 µM, a GI50 [28] of 11.4 µM and a TGI [28] of 27.6 µM. The GI50 [29] was 14.3 µM, the TGI [29] was 42.3 µM and the GI50 [30] was 8.19 µM. It also gave a TGI [30] of 48.9 µM, a GI50 [31] of 11.3 µM and a TGI [31] of 45.4 µM. The GI50 [32] was 9.9 µM, the TGI [32] was 31.8 µM and the GI50 [33] was 8.18 µM. For the same compound, the TGI [33] was 41.9 µM, the GI50 [34] was 5.47 µM and the TGI [34] was 41.5 µM. It also gave a GI50 [35] of 10.8 µM, a TGI [35] of 73.8 µM and a GI50 [36] of 12.7 µM. The TGI [36] was 38.2 µM, the GI50 [37] was 10.6 µM and the TGI [37] was 23.4 µM. For the same compound, the GI50 [38] was 16.5 µM, the TGI [38] was > 100 µM and the GI50 [39] was 12.9 µM. The TGI [39] was 37.9 µM, the GI50 [40] was 22.9 µM and the TGI [40] was > 100 µM. The GI50 [41] was 14.6 µM, the TGI [41] was 31.6 µM and the GI50 [42] was 23.3 µM. The TGI [42] was > 100 µM, the GI50 [43] was 4.99 µM and the TGI [43] was 24.4 µM. It also gave a GI50 [44] of 16.4 µM, a TGI [44] of 36.8 µM and a GI50 [45] of 17.7 µM. The TGI [45] was > 100 µM, the GI50 [46] was 18.6 µM and the TGI [46] was 49.6 µM. The GI50 [47] was 3.74 µM, the TGI [47] was 16.2 µM and the GI50 [48] was 4.19 µM. The TGI [48] was 28.8 µM, the GI50 [49] was 14.9 µM and the TGI [49] was > 100 µM. The GI50 [50] was 6.94 µM, the TGI [50] was 37.1 µM and the GI50 [51] was 3.33 µM. It also gave a TGI [51] of 18.1 µM, a GI50 [52] of 3.99 µM and a TGI [52] of 16.4 µM. It also gave a GI50 [53] of 11.9 µM, a TGI [53] of 40.2 µM and a GI50 [54] of 4.24 µM. The TGI [54] was 18.1 µM, the GI50 [55] was 6.41 µM and the TGI [55] was 19.1 µM. It also gave a GI50 [56] of 17 µM, a TGI [56] of 71.4 µM and a GI50 [57] of 4.99 µM. The TGI [57] was 28.3 µM.
